We go through 64 molecules from patent publication US9023865B2, “Compounds that are ERK inhibitors” (Merck Sharp & Dohme Corp., priority 2011, dated 2015).

By IC50 is commonly meant the concentration needed to halve the response being measured.

Like-named read-outs stand apart in the source and are kept apart here.

The target of this test is Active Human ERK2 (hERK2) (Homo sapiens (Human), UniProt P28482). Nature of the test: Active Human ERK2 (hERK2) Activity Assay (IMAP-FP). The format is biochemical. The method, boiled down:
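Reaction contains 0.5 nM activated hERK2, 900 nM unlabeled plus 80 nM labeled peptide and 30 μM ATP, run 60 min. Quenched with IMAP binding beads in buffer with 24 mM NaCl; fluorescence polarization read after 60 min binding equilibration.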

The mark [1] stands for this setting: phosphorylated active hERK2, 30 μM ATP, average, read-out: ERK 2 Human average IC50.
Setting [2] is: read-out: AERK2 IC50 (Active human ERK2 Activity Assay).

Chain of Active Human ERK2 (hERK2) (P28482 whole entry): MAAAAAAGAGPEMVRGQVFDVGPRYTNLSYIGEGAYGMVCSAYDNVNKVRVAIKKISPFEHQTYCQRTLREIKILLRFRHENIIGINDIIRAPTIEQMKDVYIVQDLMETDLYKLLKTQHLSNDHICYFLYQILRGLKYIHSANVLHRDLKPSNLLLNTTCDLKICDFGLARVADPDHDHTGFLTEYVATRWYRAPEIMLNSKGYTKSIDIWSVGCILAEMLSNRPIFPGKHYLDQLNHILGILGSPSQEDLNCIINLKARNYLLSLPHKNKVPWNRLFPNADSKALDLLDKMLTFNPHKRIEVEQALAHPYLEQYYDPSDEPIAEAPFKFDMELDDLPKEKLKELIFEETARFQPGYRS

Consider `Cc1cc(-c2n[nH]c3cc(NC(=O)N[C@@H]4CN(C)C[C@H]4c4ccccc4C)ncc23)ccn1` [Example 215, 1-((3S,4R)-1-methyl-4-(o-tolyl)pyrrolidin-3-yl)-3-(3-(2-methylpyridin-4-yl)-1H-pyrazolo[4,3-c]pyridin-6-yl)urea], for which, under setting [1], the IC50 is 0.537 nM.
Take `C[C@@H](NC(=O)Nc1cc2[nH]nc(-c3cnoc3)c2cn1)c1ccccc1` [Example 640]: the IC50 under setting [1] turned out to be 3.6 nM.
On the same count and under the same terms, with `COCCN(C)c1ncc(-c2n[nH]c3cc(NC(=O)N[C@H](C)c4ccccc4)ncc23)cn1` [Example 293] the figure was 24.3 nM; with `COc1ncccc1CNC(=O)Nc1cc2[nH]nc(-c3ccnc(C)c3)c2cn1` [Example 495], 0.608 nM; with `Cc1cc(-c2n[nH]c3cc(NC(=O)N[C@H](c4ccc(F)cc4)C(F)(F)F)ncc23)ccn1` [Example 279], 113 nM.
Still for that read-out and setting: the result for `C[C@@H](NC(=O)Nc1cc2[nH]nc(-c3ccc(=O)[nH]c3)c2cn1)c1ccc(F)cc1` [Example 282] reads 0.304 nM; that for `Cc1nnc(-c2n[nH]c3cc(NC(=O)N[C@H](C)c4ccccc4)ncc23)o1` [Example 681], 7.7 nM; that for `C[C@@H](NC(=O)Nc1cc2[nH]nc(-c3ccc(C#N)nc3)c2cn1)c1ccc(F)cc1` [Example 254], 4.59 nM.
The same measure, in the same setting: with `Cc1cc(-c2n[nH]c3cc(NC(=O)NC(C)c4cscn4)ncc23)ccn1` (stereo not shown) [Example 496] the figure was 1.41 nM.
Take `Cc1cc(-c2n[nH]c3cc(NC(=O)N[C@H]4CN(C)C[C@@H]4c4ccc(F)cc4)ncc23)ccn1` [Example 211]: the IC50 under setting [1] turned out to be 0.731 nM.
As to `Cc1cc(-c2n[nH]c3cc(NC(=O)NCC(c4ccccc4)N4CCCCC4)ncc23)ccn1` (stereo not shown) [Example 386], under setting [1], the IC50 is 4.94 nM.
Turning to `Cc1cc(-c2n[nH]c3cc(NC(=O)NC4(c5ccncc5)CCC4)ncc23)ccn1` [Example 352], the IC50 under setting [1] amounted to 30.2 nM.
Take `Cc1cc(-c2n[nH]c3cc(NC(=O)NC4CCOC(C)(C)C4)ncc23)ccn1` (stereo not shown) [Example 196]: the IC50 under setting [1] turned out to be 23.6 nM.
For `Cn1cc2cc(-c3n[nH]c4cc(NC(=O)NCc5ccc(F)c(Cl)c5)ncc34)ccc2n1` [Example 64, 1-(3-chloro-4-fluorobenzyl)-3-[3-(2-methyl-2H-indazol-5-yl)-1H-pyrazolo[4,3-c]pyridin-6-yl]urea], the IC50 reads like this: under setting [1], 0.586 nM; under setting [2], 0.2 to 1.7 nM.
For the molecule `C[C@@H](NC(=O)Nc1cc2[nH]nc(C3CC3C(=O)O)c2cn1)c1ccccc1` (stereo partly shown) [Example 660], the half-maximal inhibitory concentration (IC50) under setting [1] was found to be 2.66 nM.
Turning to `COC[C@@H](NC(=O)Nc1cc2[nH]nc(-c3ccc(C#N)cc3)c2cn1)c1ccccc1` [Example 607], the concentration for half-maximal inhibition (IC50) under setting [1] came out at 0.335 nM.
Still for that read-out and setting: the result for `Cc1cc(-c2n[nH]c3cc(NC(=O)N[C@H](C)c4ccc(F)c(F)c4)ncc23)ccn1` [Example 412] reads 0.303 nM.
For `C[C@@H](NC(=O)Nc1cc2[nH]nc(-c3cnc(N(C)S(C)(=O)=O)nc3)c2cn1)c1ccccc1` [Example 292], under setting [1], the half-inhibitory concentration (IC50) was found to be 3.6 nM.
In the case of `COc1ccc(-c2n[nH]c3cc(NC(=O)N[C@H](C)c4ccccc4)ncc23)cc1` [Example 676], the half-maximal inhibitory concentration (IC50) under setting [1] came out at 0.94 nM.
Still for that read-out and setting: the result for `COC[C@@H](NC(=O)Nc1cc2[nH]nc(-c3ccc(N4CCOCC4)nc3)c2cn1)c1ccc(F)cc1` [Example 297] reads 1.05 nM.
Consider `C[C@@H](NC(=O)Nc1cc2[nH]nc(CS(C)(=O)=O)c2cn1)c1ccccc1` [Example 560], for which the IC50 under setting [1] worked out at 81.7 nM.
Still for that read-out and setting: the result for `Cc1cccc(CNC(=O)Nc2cc3[nH]nc(C(F)F)c3cn2)n1` [Example 695] reads 155 nM; that for `Cc1cc(-c2n[nH]c3cc(NC(=O)NCC4CCN(Cc5ccccc5)C4)ncc23)ccn1` (stereo not shown) [Example 410], 2.65 nM; that for `Cc1cc(-c2n[nH]c3cc(NC(=O)NCc4nccs4)ncc23)ccn1` [Example 436], 2.14 nM.
Take `Cc1cc(-c2n[nH]c3cc(NC(=O)NCc4cnccc4C(F)(F)F)ncc23)ccn1` [Example 510]: the IC50 under setting [1] amounted to 3.66 nM.
Still for that read-out and setting: with `CNC(=O)CNC(=O)Nc1cc2[nH]nc(-c3ccnc(C)c3)c2cn1` [Example 186] the figure was 43.2 nM; with `Cc1cc(-c2n[nH]c3cc(NC(=O)NC4COc5ccccc5C4)ncc23)ccn1` (stereo not shown) [Example 467], 1.25 nM.
The same measure, in the same setting: with `Cc1cc(-c2n[nH]c3cc(NC(=O)NCc4ccc(Cl)cc4F)ncc23)ccn1` [Example 521] the figure was 3.31 nM; with `COC[C@@H](NC(=O)Nc1cc2[nH]nc(-c3ccc4nn(C)cc4c3)c2cn1)c1ccccc1` [Example 613], 0.297 nM; with `C[C@@H](NC(=O)Nc1cc2[nH]nc(C3CCC3)c2cn1)c1ccccn1` [Example 149], 72.1 nM.
Same read-out and setting: the result for `CSC1CN(C(=O)c2n[nH]c3cc(NC(=O)N[C@H](C)c4ccccc4)ncc23)C1` [Example 118] reads 501 nM; that for `CN1C[C@H](NC(=O)Nc2cc3[nH]nc(-c4ccc(F)cc4)c3cn2)[C@@H](c2ccccc2)C1` [Example 213], 42.1 nM; that for `CCN(CC)CCC(NC(=O)Nc1cc2[nH]nc(-c3ccnc(C)c3)c2cn1)c1ccccc1` (stereo not shown) [Example 406], 1.06 nM.
Turning to `Cc1cc(-c2n[nH]c3cc(NC(=O)NC4CCCC(Oc5cccc(F)c5)C4)ncc23)ccn1` (stereo not shown) [Example 658], the 50% inhibitory concentration (IC50) under setting [1] worked out at 66.9 nM.
Regarding `COC[C@@H](NC(=O)Nc1cc2[nH]nc(-c3ccc4cn(C)nc4c3)c2cn1)c1ccccc1` [Example 614], under setting [1], the IC50 was determined as 0.481 nM.
The same measure, in the same setting: with `Cc1cc(-c2n[nH]c3cc(NC(=O)NCCC(=O)Nc4ccccc4Br)ncc23)ccn1` [Example 399] the figure was 2.06 nM; with `Cc1cc(-c2n[nH]c3cc(NC(=O)NCc4ccc5ccccc5c4)ncc23)ccn1` [Example 45, 1-[3-(2-methylpyridin-4-yl)-1H-pyrazolo[4,3-c]pyridin-6-yl]-3-(naphthalen-2-ylmethyl)urea], 2.74 nM; with `Cc1cc(-c2n[nH]c3cc(NC(=O)NCc4cn5cccc(C)c5n4)ncc23)ccn1` [Example 393], 13.8 nM.
Still for that read-out and setting: the result for `Cc1nocc1-c1n[nH]c2cc(NC(=O)N[C@H](C)c3ccc(F)cc3)ncc12` [Example 243] reads 86.8 nM; that for `COC[C@@H](NC(=O)Nc1cc2[nH]nc(-c3ccnc(C)c3)c2cn1)c1ccccc1` [Example 538], 0.298 nM.
As for `C[C@@H](NC(=O)Nc1cc2[nH]nc(CNCC(F)F)c2cn1)c1ccccc1` [Example 562], the concentration for half-maximal inhibition (IC50) under setting [1] was 25.3 nM.
Regarding `Cc1cc(-c2n[nH]c3cc(NC(=O)N[C@@H](c4ccccc4)[C@@H]4CCCO4)ncc23)ccn1` [Example 554], the 50% inhibitory concentration (IC50) under setting [1] was 0.262 nM.
Still for that read-out and setting: the result for `Cc1cc(-c2n[nH]c3cc(NC(=O)NCc4scnc4C)ncc23)ccn1` [Example 418] reads 2.75 nM; that for `Cc1cc(-c2n[nH]c3cc(NC(=O)NCC4CN(C)CCO4)ncc23)ccn1` (stereo not shown) [Example 198], 5.95 nM; that for `Cc1cc(-c2n[nH]c3cc(NC(=O)N[C@@H](C)c4ccccn4)ncc23)ccn1` [Example 345], 5.37 nM.
Consider `COCCOC[C@@H](NC(=O)Nc1cc2[nH]nc(C(F)F)c2cn1)c1ccccc1` [Example 694], for which, under setting [1], the half-inhibitory concentration (IC50) worked out at 6.03 nM.
The same measure, in the same setting: the result for `COCCNC(=O)Nc1cc2[nH]nc(-c3ccc(OC(C)C)nc3)c2cn1` [Example 630] reads 2.12 nM.
Regarding `C[C@@H](NC(=O)Nc1cc2[nH]nc(-c3cnn(C)c3)c2cn1)C1CCCCC1` [Example 589], the IC50 under setting [1] is 0.823 nM.
Same read-out and setting: with `COCCNC(=O)Nc1cc2[nH]nc(-c3cc(C)nc(OC)c3)c2cn1` [Example 631] the figure was 17.4 nM; with `C[C@@H](NC(=O)Nc1cc2[nH]nc(C(=O)NCC3CCN(C4CC4)C3)c2cn1)c1ccccc1` (stereo partly shown) [Example 129], 13.6 nM.
Consider `C[C@@H](NC(=O)Nc1cc2[nH]nc(-c3ccc(C#N)cc3)c2cn1)c1ccccc1` [Example 66, 1-[3-(4-cyanophenyl)-1H-pyrazolo[4,3-c]pyridin-6-yl]-3-[(1R)-1-phenylethyl]urea], for which the half-maximal inhibitory concentration (IC50) by setting is: under setting [1], 1.06 nM; under setting [2], 0.2 to 1.7 nM.
For the molecule `CCOCCNC(=O)Nc1cc2[nH]nc(-c3ccnc(C)c3)c2cn1` [Example 617], under setting [1], the IC50 turned out to be 1.07 nM.
With `CNC(=O)c1cc(F)ccc1CNC(=O)Nc1cc2[nH]nc(-c3ccnc(C)c3)c2cn1` [Example 518], the IC50 under setting [1] stood at 5.18 nM.
With `Cc1cc(-c2n[nH]c3cc(NC(=O)N[C@@H]4CN(C)C[C@H]4c4ccccc4F)ncc23)ccn1` [Example 184], the IC50 under setting [1] was 0.171 nM.
In the case of `Cc1cc(-c2n[nH]c3cc(NC(=O)NCC4(c5ccc(F)cc5)CC4)ncc23)ccn1` [Example 269], under setting [1], the IC50 is 2.81 nM.
For `Cc1cc(-c2n[nH]c3cc(NC(=O)N[C@@H]4CCN(C)C4)ncc23)ccn1` [Example 596], the IC50 under setting [1] stood at 4.87 nM.
`Cc1cc(-c2n[nH]c3cc(NC(=O)NCc4cccc(F)c4)ncc23)ccn1` [Example 53, 1-(3-fluorobenzyl)-3-[3-(2-methylpyridin-4-yl)-1H-pyrazolo[4,3-c]pyridin-6-yl]urea]: the 50% inhibitory concentration (IC50) is 0.245 nM under setting [1] and 0.2 to 1.7 nM under setting [2].
As for `COc1cccc(F)c1CN1CCC[C@@H](NC(=O)Nc2cc3[nH]nc(-c4ccc(C#N)cc4)c3cn2)C1` [Example 655], under setting [1], the 50% inhibitory concentration (IC50) turned out to be 2.27 nM.
For the molecule `Cc1cc(-c2n[nH]c3cc(NC(=O)NCc4ncccc4Cl)ncc23)ccn1` [Example 448], the IC50 under setting [1] was 0.827 nM.
The same measure, in the same setting: the result for `Cc1cc(-c2n[nH]c3cc(NC(=O)N[C@H](COCC(F)F)c4ccccc4)ncc23)no1` [Example 701] reads 4.57 nM; that for `CC(F)(F)c1n[nH]c2cc(NC(=O)NCc3ccc(F)cc3)ncc12` [Example 668], 647 nM.
In the case of `Cc1cc(-c2n[nH]c3cc(NC(=O)NC4(c5ccc(Cl)cc5)CC4)ncc23)ccn1` [Example 85, 1-[1-(4-chlorophenyl)cyclopropyl]-3-[3-(2-methylpyridin-4-yl)-1H-pyrazolo[4,3-c]pyridin-6-yl]urea], under setting [1], the IC50 was 29.8 nM.
The same measure, in the same setting: the result for `CNC1(CNC(=O)Nc2cc3[nH]nc(-c4ccnc(C)c4)c3cn2)CCOC1` (stereo not shown) [Example 197] reads 53.7 nM; that for `Cc1cc(-c2n[nH]c3cc(NC(=O)NC4CCc5[nH]ncc5C4)ncc23)ccn1` (stereo not shown) [Example 506], 0.805 nM.
